Literature values in US20040116411A1, “Combination HIV therapy including camptothecin” (priority 2000, published 2004).

Columns and labels:
[1] = test system: viral-associated topoisomerase I; conditions: HIV infection of human H9 cells, in vitro
[2] = test system: human CD4+ lymphocytic cell line RPMI 8402; conditions: at the concentration used
[3] = test system: Moloney murine leukemia virus (MMLV)
HIV-1 LTR = conditions: human CD4+ lymphocytic cell line RPMI 8402
[4] = test system: equine infectious anemia virus (EIAA); conditions: chronically infected cells
[5] = test system: rous sarcoma virus (RSV) promoter
HIV = conditions: by disrupting gp41 conformational changes associated with membrane fusion

Compound: CC[C@@]1(O)C(=O)OCc2c1cc1n(c2=O)Cc2cc3c(CN(C)C)c(O)ccc3nc2-1 [Topotecan]
- antiviral effects (HIV-1; CPT-K5 cell line, PBMC acutely infected with clinical isolates, OM10.1 cells latently infected, activated by TNF-α): antiviral effects of topotecan were observed
- acute and chronic HIV-1 infections (HIV-1; in vitro): inhibit

Compound: CC[C@@]1(O)C(=O)OCc2c1cc1n(c2=O)Cc2cc3ccccc3nc2-1 [camptothecin, 20(S)-camptothecin]
- activity of the viral-associated topoisomerase I [1]: significantly reduced
- expression of gro, a cellular gene (gro): did not inhibit
- cell survival [2]: not significantly affected
- MMLV replication [3]: inhibits
- expression of downstream reporter gene under the control of HIV-1 LTR (HIV-1 LTR): inhibitory effects
- EIAA replication [4]: inhibits
- promoter activity of rous sarcoma virus (RSV) [5]: did not inhibit

Compound: enfuvirtide
- infection in vitro (HIV): inhibit infection in vitro
